Results published in US20160113940A1, “METHODS OF TREATING BIOFILMS” (BIOMIMETIX J.V., LLC, priority 2013, published 2016).

Tests used:
[1] = tested on: Biofilm forming Staphylococcus Aureus
Method: A total of 20 C57B5 male mice were randomly divided into four treatment groups after surgery to create an infected femur fracture (midshaft femur fracture fixed with intramedullary 23 g needle and with 10^4 S. aureus added to the fracture site):
2. Antibiotic (Keflex) starting 24 hours post-surgery,
3. SOD mimetic MnTE-2-PyP (starting 24 hours post-surgery,
4. Antibiotic plus MnTE-2-PyP (starting 24 hours post-surgery).
The mice were followed for 2 weeks and received daily access to Keflex in drinking water at […] dose for the antibiotic treated groups and MnTE three time per week (loading dose day 1=5.0 mg/kg SQ, followed by 2.5 mg/kg SQ three times weekly). […] Mice were harvested after 2 weeks and femurs were homogenized in PBS, supernatants were serially diluted and plated to determine cell counts.

[2] = tested on: Biofilm forming S. aureus; assay: Inhibition of Staphylococcus aureus biofilm formation in vitro (96 well plates, absorbance at 600 nm); assay type: cell-based; conditions: established 24 h biofilm, 24 hours further growth after treatment, vs PBS; p<0.0001; FIG. 1
Method: Biofilm forming S. aureus was grown in 96 well plates for 24 hours to allow a biofilm to form. Wells were allowed to grow an additional 24 hours after being treated with either PBS or SOD mimetic (Mn (III) tetrakis (N-ethylpyridinium-2-yl) porphyrin, or “MnTE-PyP”). Biofilm intensity was measured using absorbance at 600 nm. […] (p<0.0001)

With CC1=C(C(=O)O)N2C(=O)[C@@H](NC(=O)[C@H](N)c3ccccc3)[C@H]2SC1 [Keflex, reference compound] the “Fracture healing compared to no treatment” value ([1]; infected femur fracture, 2 wks, FIG. 3) was “significantly improved fracture healing”.

CC[n+]1ccccc1-c1c2nc(c(-c3cccc[n+]3CC)c3ccc([n-]3)c(-c3cccc[n+]3CC)c3nc(c(-c4cccc[n+]4CC)c4ccc1[n-]4)C=C3)C=C2.[Mn+3] [MnTE-2-PyP, Mn (III) tetrakis (N-ethylpyridinium-2-yl) porphyrin] was tested, and the Mortality ([1]; initial post-operative period, mimetic only group, not felt to be related to the compound) was “one mouse died” and the “Biofilm intensity (absorbance at 600 nm)” value [2] was “disrupts established S. aureus biofilms in culture”.
